Read-outs that look alike come from different tables or passages of the source.
System: SARS-CoV-2 strain BavPat1
Assay: Determination of EC50 and EC90: inhibition of SARS-CoV-2 viral RNA replication in Vero E6 cells (RT-qPCR)
Assay type: cell-based
Conditions: Severe acute respiratory syndrome coronavirus 2, Vero C1008, 48 h, read-out: EC50 (compound concentration required to inhibit viral RNA replication by 50%)

## CCn1c(CO)nn(-c2cc(O[C@@H](C)C(F)(F)F)c(C(=O)Nc3c(F)cccc3Cl)cc2F)c1=O [BAY-2402234, N-(2-Chloro-6-fluorophenyl)-4-[4-ethyl-3-(hydroxymethyl)-5-oxo-1,2,4-triazol-1-yl]-5-fluoro-2-[(2S)-1,1,1-trifluoropropan-2-yl]oxybenzamide]
Vero E6 cells, MOI 0.002, 2 days of culture, viral RNA in supernatant
  EC50: < 40 nM

## CCC(CC)COC(=O)[C@H](C)N[P@](=O)(OC[C@H]1O[C@@](C#N)(c2ccc3c(N)ncnn23)[C@H](O)[C@@H]1O)Oc1ccccc1 [remdesivir, Remdesivir]
  EC50: 2700 nM

Source: patent US20230181539A1, “METHODS FOR THE TREATMENT OF CORONAVIRUS INFECTIONS” (INSERM (INSTITUT NATIONAL DE LA SANTÉ ET DE LA RECHERCHE …, priority 2020, published 2023)
